Tested on: HL-60
Assay: In vitro differentiation-inducing activity of human myeloid leukemia cells (HL-60) into macrophages; compound showed potent activity
Assay type: functional, cell-based

SMILES: C=C1/C(=C\C=C2/CCC[C@@]3(C)C2CCC3[C@@H](C)SCCC(O)(CC)CC)C[C@@H](O)C[C@@H]1O (stereo partly specified)
- Activity: compound showed potent activity
